# Experimental data as given in publication PMC12264794, “Homoleptic complexes of titanium(IV) fused with O^N^O Schiff base derivatives: design, BSA–DNA interaction, molecular docking, DFT and cytotoxicity” (RSC Advances, 2025).
# Like-named read-outs stand apart in the source and are kept apart here.
# What was measured:
# [1] = DPPH radical scavenging assay; format: biochemical; details: 40 minutes, absorbance at 517 nm
# Text: In the current study, 1,1-diphenyl 2-picrylhydrazyl (DPPH) radical scavenging screening determined the antioxidant properties of the synthesized Ti(IV) complexes. The spectrophotometric principle that led to the quenching of stable-colored radicals (DPPH) is the foundation of DPPH assays.[62] By detecting the drop in absorbance at 517 nm, which corresponds to the DPPH free radical, the scavenging activity of the produced complexes can be determined. The result of the reaction between the scavenger and colored free radical is 1,1-diphenyl-2-picrylhydrazine (DPPH-H), which lacks color. The newly synthesized Ti(IV) complexes were dissolved at a ratio of 1 mg mL^−1 in DMSO to create the stock solution. Similarly, methanol was used to prepare a stock solution of a 0.05 Mm DPPH solution. The Ti(IV) complexes were dissolved in DPPH stock solution to make (9.5 μM, 18.75 μM, 37.5 μM, 75 μM, 100 μM, and 300 μM) concentrations of the complexes and kept in a state of rest for 40 minutes under closed conditions. The absorbance of the Ti(IV) complexes was measured at 517 nm after 40 minutes for each solution loaded in 96-well plates using a Bio-Rad xMARK™ Microplate Spectrophotometer. For comparison, the absorbance of a control solution containing DPPH and methanol as blank, devoid of test samples, was also measured at the same level. Three sets of experiments were conducted for each concentration, using ascorbic acid as the standard reference. Using eqn (1), the proportion of DPPH free radical scavenging activity was calculated.[63]1 [drawing 1] where Ac and As are the absorbance of the control and the mixture. The necessary concentration of the Ti(IV) complexes to scavenge DPPH radicals was determined by employing linear regression to plot a curve between concentration and % inhibition.
# In order to ascertain the antioxidant activity of the Ti(IV) complexes, a UV-vis spectrophotometric examination was performed using the 1,1-diphenyl-2-picrylhydrazyl (DPPH) method. Since DPPH is thought to be a dependable, stable, free radical, it reacts with methanol to form a […]. The ability of the complexes containing DPPH radicals to scavenge radicals was evaluated in the manner described. Several concentrations of the Ti(IV) complexes were investigated. Mixtures created by mixing DPPH with each component were subjected to spectrophotometric analysis at 517 nm to determine the absorbance. Antioxidant compounds usually transfer one electron to act as a reducing agent.
# BSA = molecular target: T1, BSA (Bos taurus, UniProt P02769); assay: BSA fluorescence quenching titration; format: binding, bovine; details: for KBSA, Stern–Volmer quenching constant: BSA 3 × 10^−6 M, PBS pH 7.4; for Kq, quenching rate constant: τ0 = 1 × 10^−8
# T1 construct: purchased Himedia Chemicals
# Description: BSA stock solution (5 mM) was prepared in 5 mM phosphate buffer (pH 7.4) and then kept at 2–6 °C. The binding mechanism of the Ti(IV) complexes with BSA was established using fluorescence titration at 200–500 nm. Metal complexes with BSA were quenched by tracking changes in the fluorescence intensity at a certain excitation wavelength of 285 nm and emission value at 345 nm, respectively.[52] Identical excitation and emission scan rates and slit widths were employed in all investigations. In order to titrate against different metal complex concentrations ranging from 0 to 80 μM, a constant protein concentration of BSA was used. Similarly, the synchronous fluorescence spectra were also acquired by titrating different metal complex concentrations ranging from 0 to 80 μM while maintaining a constant BSA at the specified excitation wavelengths, λ = 15 nm and 60 nm.[53,54]
# Ti(IV) complexes of (1 × 10^−5 M) concentration were gradually added, ranging from 0 to 72 μM to bind with BSA (3 × 10^−6 M) of fixed concentration in PBS buffer of pH 7.4. […] This phenomenon might be caused by modifications to the secondary or tertiary structures of BSA, which could have an impact on the tryptophan residues of the BSA microenvironment. Typically, the Stern–Volmer eqn (8) can be used to characterize fluorescence quenching.8 I0/I = 1+KBSA[Q] = 1 + kqτ0[Q]where τ0 is the lifetime of the tryptophan in BSA, which is determined to be 1 × 10^−8, kq is the quenching constant, I0 is the fluorescence intensity of BSA in the absence of complex and I denotes the fluorescence intensities of BSA in the presence of a complex of concentration [Q]. The quenching rate constant, dynamic quenching constant, average lifetime without quencher, and quencher concentration of the biomolecule are represented by the values of kq, KBSA, τ0 and [Q], respectively.
# The binding constant (Kb) and the number of binding sites (n) for the static quenching interaction can be determined using the Scatchard eqn (9),9 Log(I0 − I/I) = log K + n log[Q]where I0 and I are the fluorescence intensities of BSA with and without quenchers (complexes). Fig. 7(c), Table 3 and ESI Fig. S70 ^† display the double logarithmic plot of log[I0 − I/I] vs. log[complex].
# [2] = Scatchard plot, 298 K, no site probe
# T1 sequence (P02769 25-607): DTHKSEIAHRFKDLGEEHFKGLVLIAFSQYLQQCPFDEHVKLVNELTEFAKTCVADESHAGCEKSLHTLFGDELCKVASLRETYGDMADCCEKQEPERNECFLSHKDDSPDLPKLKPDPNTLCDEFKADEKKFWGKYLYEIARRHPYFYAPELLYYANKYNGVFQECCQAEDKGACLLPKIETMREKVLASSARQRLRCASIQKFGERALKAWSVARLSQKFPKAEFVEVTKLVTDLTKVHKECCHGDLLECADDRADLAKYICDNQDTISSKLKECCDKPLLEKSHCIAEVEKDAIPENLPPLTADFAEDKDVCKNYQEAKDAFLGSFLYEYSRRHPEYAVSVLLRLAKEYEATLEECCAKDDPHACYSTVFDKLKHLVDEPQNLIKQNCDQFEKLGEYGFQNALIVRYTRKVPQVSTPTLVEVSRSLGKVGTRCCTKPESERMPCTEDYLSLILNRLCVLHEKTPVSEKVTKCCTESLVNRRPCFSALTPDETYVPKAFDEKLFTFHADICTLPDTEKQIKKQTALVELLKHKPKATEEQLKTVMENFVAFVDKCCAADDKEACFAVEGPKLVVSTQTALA
Structure (SMILES),IC50 [1] [µM],"KBSA, Stern–Volmer quenching constant (BSA) [M⁻¹]","n, number of binding sites (BSA) (BSA; Scatchard plot, 298 K)",Kb binding constant (BSA) (BSA; [2]) [M⁻¹],"Kq, quenching rate constant (BSA) [M⁻¹ s⁻¹]",KBSA (BSA) [M⁻¹],Kb binding constant (BSA) (BSA) [M⁻¹]
[O-]C(=NN=Cc1ccccc1[O-])c1ccncc1.[O-]C(=NN=Cc1ccccc1[O-])c1ccncc1.[Ti+4] [Ti-1-IS],92.01 ± 0.1,175000,1.31,400,1.75e+13,,
[O-]C(=NN=Cc1c([O-])ccc2ccccc12)c1ccncc1.[O-]C(=NN=Cc1c([O-])ccc2ccccc12)c1ccncc1.[Ti+4] [Ti-2-IN],128.1 ± 0.3,105000,1.26,470,1.05e+13,,
COc1cccc(C=NN=C([O-])c2ccncc2)c1[O-].COc1cccc(C=NN=C([O-])c2ccncc2)c1[O-].[Ti+4] [Ti-3-IO],44.59 ± 0.4,277000,1.42,360,2.77e+13,277000,
[O-]C(=NN=Cc1cc(F)ccc1[O-])c1ccncc1.[O-]C(=NN=Cc1cc(F)ccc1[O-])c1ccncc1.[Ti+4] [Ti-4-IF],82.61 ± 0.1,197000,1.60,110,1.97e+13,,
[O-]C(=NN=Cc1cc(Cl)ccc1[O-])c1ccncc1.[O-]C(=NN=Cc1cc(Cl)ccc1[O-])c1ccncc1.[Ti+4] [Ti-5-ICl],72.26 ± 0.7,112000,1.07,650,1.12e+13,,650
Brc1ccc2c(c1)C=NN=C(c1ccncc1)[O][Ti]1([O]C(c3ccncc3)=NN=Cc3cc(Br)ccc3[O]1)[O]2 (centres unmarked) [Ti-6-IBr],74.84 ± 0.2,85000,1.35,140,8.5e+12,,
